In patent publication US4087461A, “Anti-androgenic steroids” (The Johns Hopkins University, priority 1977, dated 1978):
Entries after “also recorded” stand apart in the source; their conditions may differ.

Legend:
[1] = test system: endogenous androgen biosynthesis; assay: study in intact male rats: weights of sex accessory tissue and other organs; assay type: in vivo, male Sprague-Dawley rats; settings: 7 days; for Adrenal weight (± Sem): control 28 ± 2; for Dorsal Lateral Prostate weight (± Sem): control 252 ± 14; for Seminal Vesicles weight (± Sem): control 470 ± 26; for Ventral Prostate weight (± Sem): control 482 ± 24; for Kidney weight (± Sem): control 1410 ± 38; for Testis weight (± Sem): control 1580 ± 23
Experimental: Studies with intact male Sprague-Dawley rats (300g body weight) are illustrated for compounds (1) and (2).
Similarly, compound (2), […] rats at a dosage of 20mg per kilo for 7 days produced 20% reduction in weight of the ventral prostate and 28% reduction of the dorsal lateral prostate.
The following data illustrates the inhibiting effect of estryne and pregnyne on Δ^5 -3-ketosteroid isomerase (EC 5.3.3.1) as evidenced by a depression of the wet weight of the sex accessory tissue in the mature male rat treated with the estryne and pregnyne.
A. Male rats were used to assess the effect of estryne on endogenous androgen biosynthesis at varying doses (1-20 mg/kg body weight). […] On the eighth day the animals were sacrificed and the ventral prostate, dorsal lateral prostate, seminal vesicles, testes, kidneys, and adrenals were removed and weighed. Samples of each tissue were preserved in 10% buffered formalin for histological examination.
B. Male rats were treated with 19-norpregnyne by a regimen exactly as described for the estryne.

[2] = molecular target: T1, Δ^5 -3-ketosteroid isomerase (EC 5.3.3.1) (Comamonas testosteroni, UniProt P00947); assay: irreversible inactivation of crystalline purified bacterial Δ^5-3-ketosteroid isomerase by acetylenic steroids (Kitz and Wilson kinetic analysis); assay type: biochemical, Pseudomonas testosteroni; settings: 24 hr at 4° vs. 1 mM potassium phosphate buffer, pH 7.0
[3] = molecular target: T1, Δ^5 -3-ketosteroid isomerase (EC 5.3.3.1); assay: as above; assay type: biochemical, Pseudomonas testosteroni
Experimental: The inactivation is progressive with time, and half-lives in the range of 150-1320 sec are observed at concentrations of 20-200 μM of the two inhibitors. The enzymatic activities of control vessels which received only equivalent volumes of 1,4-dioxane remained constant at initial activities.
The initial rates of inactivation of the isomerase by (1) and (2) can be analyzed by the method of Kitz and Wilson^8 since very satisfactory pseudo-first-order behavior was observed. It is assumed that [I] (inhibitor) >> [E] (enzyme), that [E.I] (the reversible enzyme-inhibitorcomplex) is at all times in equilibrium with enzyme and inhibitor, and that ^k cat >> ^k inh. The scheme for the formation of EI' (the irreversible enzyme-inhibitor derivative) may then be represented as follows.
If the enzyme-inhibitor solution is diluted extensively prior to assay, the active enzyme (ε) = [E] + [E.I]. Then -d(ε)/dt = k3 [E.I.], and K1 = ([E][I])/[EI]. Thus [formula] where Et = total amount of enzyme in system.
If one defines [formula] Consequently double reciprocal plots of kapp with respect to [I] should be linear, with slopes and intercepts permitting the determination of K1 and k3 where the latter is the overall rate constant for the irreversible inhibition process.
From plots of 1n ε (residual enzymatic activity) vs. time, kapp has been determined at five inhibitor concentrations for both compounds 1 and 2, i.e. estryne and pregnyne. Strict linearity of the semilogarithmic plots has been observed in all cases, over greater than two half-lives. A plot of 1/kapp vs. 1/[I] was linear and gave k3 and K1 (FIG. 1). For compound 1, K1 = 56 μM and k3 = 1.98 × 10^-3 sec^-1, and for compound 2, K1 = 32 μM and k3 = 4.10 × 10^-3 sec^-1.
Studies were performed using crystalline purified bacterial Δ^5 -3-ketosteroid isomerase (from P. testosteroni), under pseudo first order conditions using the kinetic analysis of R. Kitz and I. B. Wilson [J. Biol. Chem., 237, 3245 (1964)].

[4] = molecular target: T2, cytosol androgen receptor (prostate androgen binding protein) (Rattus norvegicus, UniProt P15207); assay: inhibition of nuclear uptake of ^3H-dihydrotestosterone in ventral prostate minces (binding to the prostatic androgen receptor)
T2 construct: freshly minced ventral prostate tissue obtained from rats castrated 24 hours before sacrifice; from tissue; host or cells: ventral prostate minces of castrated rats
T2 sequence (P15207 1-902): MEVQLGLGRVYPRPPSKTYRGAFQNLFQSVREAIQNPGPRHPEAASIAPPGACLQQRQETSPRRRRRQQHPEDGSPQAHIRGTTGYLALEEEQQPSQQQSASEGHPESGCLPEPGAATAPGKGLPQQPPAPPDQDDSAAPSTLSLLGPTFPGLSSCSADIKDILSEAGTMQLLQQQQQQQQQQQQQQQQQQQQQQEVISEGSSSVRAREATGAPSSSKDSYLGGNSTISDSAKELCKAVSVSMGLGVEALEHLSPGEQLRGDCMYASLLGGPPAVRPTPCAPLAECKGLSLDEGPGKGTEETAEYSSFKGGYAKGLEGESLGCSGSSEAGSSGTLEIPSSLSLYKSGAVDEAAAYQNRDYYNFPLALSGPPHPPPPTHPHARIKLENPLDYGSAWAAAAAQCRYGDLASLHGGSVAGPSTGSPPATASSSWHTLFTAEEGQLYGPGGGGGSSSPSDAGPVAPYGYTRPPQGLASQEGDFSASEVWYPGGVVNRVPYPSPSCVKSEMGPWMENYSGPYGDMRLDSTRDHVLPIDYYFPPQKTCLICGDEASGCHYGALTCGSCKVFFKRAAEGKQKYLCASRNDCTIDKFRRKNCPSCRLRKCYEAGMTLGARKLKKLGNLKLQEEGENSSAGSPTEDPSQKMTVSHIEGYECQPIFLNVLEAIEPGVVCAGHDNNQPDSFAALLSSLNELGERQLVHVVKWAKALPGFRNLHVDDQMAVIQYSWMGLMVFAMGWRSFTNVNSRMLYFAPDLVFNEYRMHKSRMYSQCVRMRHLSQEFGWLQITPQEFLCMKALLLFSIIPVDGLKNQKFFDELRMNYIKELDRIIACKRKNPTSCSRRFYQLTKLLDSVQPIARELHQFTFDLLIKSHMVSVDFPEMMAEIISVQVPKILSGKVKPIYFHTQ
Experimental: The binding to the cytosol androgen receptor was determined by the procedure of Fang (5) with modification. […] The amount of radioactivity in the nuclei is expressed as observed counts per minute per 100 μg DNA.

[5] = 20mg per kilo per day, i.p. in propylene glycol

T1 sequence (P00947 whole entry, stated change not applied): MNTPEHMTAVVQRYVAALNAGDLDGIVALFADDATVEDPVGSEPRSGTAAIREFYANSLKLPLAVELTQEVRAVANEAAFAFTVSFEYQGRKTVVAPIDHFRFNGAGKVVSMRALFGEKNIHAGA

CC(=O)[C@H]1CC[C@H]2[C@@H]3CC#CCC(=O)CCC(=O)[C@H]3CC[C@]12C [Compound 2, 5,10-seco-19-norpregn-5-yne-3,10,20-trione]
reduction in weight of the dorsal lateral prostate [1, 5]: 28%
reduction in weight of the ventral prostate [1, 5]: 20%
dose dependence of the effect on prostatic weight ([1]; 1-20 mg/kg, in words): dose dependent
Adrenal weight (± Sem) ([1]; pregnyne 1 mg/kg daily i.p.): 22 ± 2 mg
Dorsal Lateral Prostate weight (± Sem) ([1]; pregnyne 1 mg/kg daily i.p.): 205 ± 14 mg
Seminal Vesicles weight (± Sem) ([1]; pregnyne 1 mg/kg daily i.p.): 423 ± 21 mg
Ventral Prostate weight (± Sem) ([1]; pregnyne 1 mg/kg daily i.p.): 405 ± 18 mg
Kidney weight (± Sem) ([1]; pregnyne 1 mg/kg daily i.p.): 1360 ± 48 mg
Testis weight (± Sem) ([1]; pregnyne 1 mg/kg daily i.p.): 1530 ± 68 mg
Adrenal weight (± Sem) ([1]; pregnyne 5 mg/kg daily i.p.): 25 ± 2 mg
Dorsal Lateral Prostate weight (± Sem) ([1]; pregnyne 5 mg/kg daily i.p.): 208 ± 11 mg
Seminal Vesicles weight (± Sem) ([1]; pregnyne 5 mg/kg daily i.p.): 384 ± 17 mg
Ventral Prostate weight (± Sem) ([1]; pregnyne 5 mg/kg daily i.p.): 402 ± 27 mg
Kidney weight (± Sem) ([1]; pregnyne 5 mg/kg daily i.p.): 1370 ± 42 mg
Testis weight (± Sem) ([1]; pregnyne 5 mg/kg daily i.p.): 1510 ± 44 mg
Adrenal weight (± Sem) ([1]; pregnyne 10 mg/kg daily i.p.): 26 ± 1 mg
Dorsal Lateral Prostate weight (± Sem) ([1]; pregnyne 10 mg/kg daily i.p.): 182 ± 19 mg
Seminal Vesicles weight (± Sem) ([1]; pregnyne 10 mg/kg daily i.p.): 390 ± 14 mg
Ventral Prostate weight (± Sem) ([1]; pregnyne 10 mg/kg daily i.p.): 386 ± 20 mg
Kidney weight (± Sem) ([1]; pregnyne 10 mg/kg daily i.p.): 1310 ± 60 mg
Testis weight (± Sem) ([1]; pregnyne 10 mg/kg daily i.p.): 1530 ± 53 mg
Adrenal weight (± Sem) ([1]; pregnyne 20 mg/kg daily i.p.): 31 ± 2 mg
Dorsal Lateral Prostate weight (± Sem) ([1]; pregnyne 20 mg/kg daily i.p.): 180 ± 14 mg
Seminal Vesicles weight (± Sem) ([1]; pregnyne 20 mg/kg daily i.p.): 380 ± 9 mg
Ventral Prostate weight (± Sem) ([1]; pregnyne 20 mg/kg daily i.p.): 360 ± 21 mg
Kidney weight (± Sem) ([1]; pregnyne 20 mg/kg daily i.p.): 1360 ± 43 mg
Testis weight (± Sem) ([1]; pregnyne 20 mg/kg daily i.p.): 1480 ± 63 mg
restoration of enzymatic activity by prolonged dialysis [2]: inability to restore enzymatic activity
irreversible inhibition / inactivation of the enzyme ([3]; in words): rapid irreversible inhibition; also recorded: rapid irreversible and complete inactivation of the enzyme; also recorded: Powerful irreversible inhibition
half-life of enzyme inactivation ([3]; pH 7.0, 20-200 μM of the two inhibitors, in 1,4-dioxane): 2.5 to 22 min
kinact ([3]; pH 7, pseudo first order conditions, five inhibitor concentrations (10-fold range), read-out: k3, overall rate constant for the irreversible inhibition process): 0.0041 s⁻¹
Ki ([3]; pseudo first order conditions, five inhibitor concentrations (10-fold range), read-out: K1 (KI), inhibitor dissociation constant): 32 µM
remaining activity at 2 µM ([4]; rat, 1 h, pH 7.4, steroid 2 × 10^-6 M with ^3H-DHT 2 × 10^-9 M, read-out: nuclear uptake of ^3H-DHT, % Control): 137%
CPM/100 DNA (nuclear uptake of ^3H-DHT) ([4]; steroid 2 × 10^-6 M with ^3H-DHT 2 × 10^-9 M, control 8,471): 11,636 CPM/100 DNA
inhibition of androgen uptake by the nuclei ([4]; ventral prostate minces, in words): no inhibition of androgen uptake by the nuclei
